Tests used:
[1] = Ocular tissue distribution of compound 1001 nanomicellar formulations (LC-MS/MS); type: in vivo, New Zealand White Rabbits; conditions: rabbits, topical ocular administration
Description: A study was conducted in rabbits to test the tolerance and ocular tissue distribution of two nanomicellar formulations of compound 1001 (RX10045) against matching placebos (Table 6a and 6b) and balanced saline solution (BSS). Healthy New Zealand female white rabbits (2-3 kg) were used for this study. One drop (approximately 35 μL) of study drug was applied o.d. 4×/day at two hour intervals for 5 days. One drop of BSS was applied to the contralateral eye.
Selected ocular fluids/tissues (aqueous humor, vitreous humor, conjunctiva, cornea, iris-ciliary body, lens, retina/choroid, and sclera) collected from two rabbits each in the RX-10045 (0.15% in HCO-60, 0.1% in HCO-40) treatment groups, and from one rabbit in each of the matching placebo groups, were assayed for compound 1001 and another resolvin by liquid chromatography-tandem mass spectrometry (LC-MS/MS). Warfarin-d5 and 5-HDA were used as internal standards for the analysis of RX-10045 and its active metabolite, RX-10008, respectively, in aqueous humor and vitreous humor. For the other ocular tissues (solid tissues), warfarin-d5 and phenyl acetic acid-d5 (PAA-d5) were used as the internal standards for compound 1001 and RX-10008, respectively. The analytical range for the solid tissues were 0.125-100 ng. The results of the solid tissue analyses were converted to ng/g by correcting for the amount of tissue analyzed.

[2] = Visual appearance of mixed nanomicellar formulation; type: physicochemical; conditions: for Final formulation / Resuspend in water / Final formulation (make up with 2X buffer containing 0.01% Oc-40): 1001 4 wt %; for Result: solvent evaporation, HCO-60 4 wt %, Octoxynol-40 0.01 wt %
Description: Mixed nanomicellar formulation encapsulating compound 1001 was prepared by solvent evaporation method in two steps: 1) Preparation of basic formulation and 2) rehydration. In step one, compound 1001, HCO-60 and octoxynol-40 were dissolved separately in 0.3 mL of ethyl acetate. These three solutions were mixed together in 15-mL centrifuge tube. The resultant mixture was vortexed to obtain a homogenous solution. Ethyl acetate solvent was removed with speed vacuum to obtain a solid thin film. The residue was kept overnight under high vacuum at room temperature to remove residual organic solvent. In step two, the resultant thin film was hydrated with 1 mL of double distilled deionized water by vortexing the solution. The rehydrated formulation was suspended in 2× phosphate buffer solution, (pH 6.5). It was filtered through 0.2 μm nylon filter membrane to remove the unentrapped drug aggregates and other foreign particulates. […]
The preparation of MNF encapsulating compound 1001 (neat oil) can be divided into two steps. As an example for the development of 3.0 wt % HCO-40 or HCO-60 MNF encapsulating 0.4% compound 1001 is described below. […] To this melt polymer compound 1001 (˜20 mg), thermostated at 40° C., was added and mixed for homogenous distribution. […] (in refrigerator).
This aqueous solution was allowed to reach room temperature, under natural conditions. The pH of the solution was adjusted to 5.5 and the volume was made up with 2× phosphate buffer saline (pH 5.5) containing octoxynol-40 (0.01 wt %) and PVP-K-90 (1.2 wt %). The formulation was filtered through 0.2 μm nylon filter to remove any foreign material and obtain a clear homogenous aqueous RX-1001 formulation.
The results obtained for physical appearance of the mixture, different phases, at different temperatures and appearance of final formulation are summarized in Tables 2a-2c. […]

[3] = melt at 40° C., cooled to room temperature, HCO-40 0.5 wt %
[4] = melt at 40° C., cooled to room temperature, HCO-40 0.75 wt %
[5] = melt at 40° C., cooled to room temperature, HCO-40 1.0 wt %
[6] = melt at 40° C., cooled to room temperature, HCO-40 1.25 wt %
[7] = melt at 40° C., cooled to room temperature, HCO-40 1.5 wt %
[8] = melt at 40° C., cooled to room temperature, HCO-40 1.75 wt %
[9] = melt at 40° C., cooled to room temperature, HCO-40 2.0 wt %
[10] = melt at 40° C., cooled to room temperature, HCO-40 2.25 wt %
[11] = melt at 40° C., cooled to room temperature, HCO-40 2.5 wt %
[12] = melt at 40° C., cooled to room temperature, HCO-40 2.75 wt %
[13] = melt at 40° C., cooled to room temperature, HCO-40 3.0 wt %
[14] = melt at 40° C., cooled to room temperature, HCO-40 4.0 wt %

C#CC[C@@H](O)/C=C/C=C/C#C[C@@H](O)CCCC(=O)OC(C)C [compound 1001]
Hydrolysis to active metabolite RX-10008 in ocular tissues [1]: rapidly hydrolyzed
Final formulation [2, 3]: Emulsion
Resuspend in water [2, 3]: Emulsion
Final formulation [2, 4]: Emulsion
Resuspend in water [2, 4]: Emulsion
Final formulation [2, 5]: Emulsion
Resuspend in water [2, 5]: Emulsion
Final formulation [2, 6]: Emulsion
Resuspend in water [2, 6]: Emulsion
Final formulation [2, 7]: Emulsion
Resuspend in water [2, 7]: Emulsion
Final formulation [2, 8]: Emulsion
Resuspend in water [2, 8]: Emulsion
Final formulation [2, 9]: Emulsion
Resuspend in water [2, 9]: Emulsion
Final formulation [2, 10]: Emulsion
Resuspend in water [2, 10]: Emulsion
Final formulation [2, 11]: Yellow color
Resuspend in water [2, 11]: Yellow
Final formulation [2, 12]: Pale yellow
Resuspend in water [2, 12]: Pale yellow
Final formulation [2, 13]: Clear
Resuspend in water [2, 13]: Clear
Final formulation [2, 14]: Clear
Resuspend in water [2, 14]: Clear
Resuspend in water ([2]; melt cooled to 25° C., placed at 4° C., back to room temperature, water at 40° C., HCO-40 0.5 wt %): Emulsion
Resuspend in water ([2]; melt cooled to 25° C., placed at 4° C., back to room temperature, water at 40° C., HCO-40 0.75 wt %): Emulsion
Resuspend in water ([2]; melt cooled to 25° C., placed at 4° C., back to room temperature, water at 40° C., HCO-40 1.0 wt %): Emulsion
Resuspend in water ([2]; melt cooled to 25° C., placed at 4° C., back to room temperature, water at 40° C., HCO-40 1.25 wt %): Emulsion
Resuspend in water ([2]; melt cooled to 25° C., placed at 4° C., back to room temperature, water at 40° C., HCO-40 1.5 wt %): Emulsion
Resuspend in water ([2]; melt cooled to 25° C., placed at 4° C., back to room temperature, water at 40° C., HCO-40 1.75 wt %): Emulsion
Resuspend in water ([2]; melt cooled to 25° C., placed at 4° C., back to room temperature, water at 40° C., HCO-40 2.0 wt %): Emulsion
Resuspend in water ([2]; melt cooled to 25° C., placed at 4° C., back to room temperature, water at 40° C., HCO-40 2.25 wt %): Emulsion
Resuspend in water ([2]; melt cooled to 25° C., placed at 4° C., back to room temperature, water at 40° C., HCO-40 2.5 wt %): Yellow
Resuspend in water ([2]; melt cooled to 25° C., placed at 4° C., back to room temperature, water at 40° C., HCO-40 2.75 wt %): Pale yellow
Resuspend in water ([2]; melt cooled to 25° C., placed at 4° C., back to room temperature, water at 40° C., HCO-40 3.0 wt %): Clear
Resuspend in water ([2]; melt cooled to 25° C., placed at 4° C., back to room temperature, water at 40° C., HCO-40 4.0 wt %): Clear
Final formulation ([2]; melt cooled to 25° C., placed at 4° C., back to room temperature, HCO-40 0.5 wt %): Emulsion
Final formulation ([2]; melt cooled to 25° C., placed at 4° C., back to room temperature, HCO-40 0.75 wt %): Emulsion
Final formulation ([2]; melt cooled to 25° C., placed at 4° C., back to room temperature, HCO-40 1.0 wt %): Emulsion
Final formulation ([2]; melt cooled to 25° C., placed at 4° C., back to room temperature, HCO-40 1.25 wt %): Emulsion
Final formulation ([2]; melt cooled to 25° C., placed at 4° C., back to room temperature, HCO-40 1.5 wt %): Emulsion
Final formulation ([2]; melt cooled to 25° C., placed at 4° C., back to room temperature, HCO-40 1.75 wt %): Emulsion
Final formulation ([2]; melt cooled to 25° C., placed at 4° C., back to room temperature, HCO-40 2.0 wt %): Emulsion
Final formulation ([2]; melt cooled to 25° C., placed at 4° C., back to room temperature, HCO-40 2.25 wt %): Emulsion
Final formulation ([2]; melt cooled to 25° C., placed at 4° C., back to room temperature, HCO-40 2.5 wt %): Yellow color
Final formulation ([2]; melt cooled to 25° C., placed at 4° C., back to room temperature, HCO-40 2.75 wt %): Very pale yellow
Final formulation ([2]; melt cooled to 25° C., placed at 4° C., back to room temperature, HCO-40 3.0 wt %): Clear
Final formulation ([2]; melt cooled to 25° C., placed at 4° C., back to room temperature, HCO-40 4.0 wt %): Clear
Final formulation (make up with 2X buffer containing 0.01% Oc-40) ([2]; melt method, HCO-60 1.0 wt %): Emulsion
Resuspend in water ([2]; melt method, HCO-60 1.0 wt %, water at 40°): Emulsion
Final formulation (make up with 2X buffer containing 0.01% Oc-40) ([2]; melt method, HCO-60 2.0 wt %): Pale yellow
Resuspend in water ([2]; melt method, HCO-60 2.0 wt %, water at 40°): Forms pale
Final formulation (make up with 2X buffer containing 0.01% Oc-40) ([2]; melt method, HCO-60 2.25 wt %): Pale yellow
Resuspend in water ([2]; melt method, HCO-60 2.25 wt %, water at 40°): Forms pale
Final formulation (make up with 2X buffer containing 0.01% Oc-40) ([2]; melt method, HCO-60 2.5 wt %): Pale yellow
Resuspend in water ([2]; melt method, HCO-60 2.5 wt %, water at 40°): Forms very
Final formulation (make up with 2X buffer containing 0.01% Oc-40) ([2]; melt method, HCO-60 2.75 wt %): Clear solution
Resuspend in water ([2]; melt method, HCO-60 2.75 wt %, water at 40°): Forms very
Final formulation (make up with 2X buffer containing 0.01% Oc-40) ([2]; melt method, HCO-60 3.0 wt %): Clear solution
Resuspend in water ([2]; melt method, HCO-60 3.0 wt %, water at 40°): Clear solution
Final formulation (make up with 2X buffer containing 0.01% Oc-40) ([2]; melt method, HCO-60 3.5 wt %): Clear solution
Resuspend in water ([2]; melt method, HCO-60 3.5 wt %, water at 40°): Clear solution
Final formulation (make up with 2X buffer containing 0.01% Oc-40) ([2]; melt method, HCO-60 4.0 wt %): Clear solution
Resuspend in water ([2]; melt method, HCO-60 4.0 wt %, water at 40°): Clear solution
Result ([2]; 1001 initially added 0.035 wt %): Clear/transparent
Result ([2]; 1001 initially added 0.070 wt %): Clear/transparent
Result ([2]; 1001 initially added 0.095 wt %): Clear/transparent
Result ([2]; 1001 initially added 0.120 wt %): Pale yellow color
Result ([2]; 1001 initially added 0.250 wt %): Yellow color
Result ([2]; 1001 initially added 0.300 wt %): Yellow color
Result ([2]; 1001 initially added 0.400 wt %): Yellow color

Reference: patent US9937225B2, “Topical formulations and uses thereof” (OCULAR TECHNOLOGIES SARL, priority 2012, dated 2018)
